Data from patent publication US6670363B1, “Azole compounds as therapeutic agents for fungal infections” (Ranbaxy Laboratories Limited, priority 2000, dated 2003).
≈ marks a conversion by molar mass, not a printed value.

Columns and labels:
Assay type in all cases: cell-based
A. fumigatus s 1008 = assay: In vitro MIC, NCCLS M38P broth method (RPMI 1640/MOPS pH7), Aspergillus fumigatus; conditions: A. fumigatus strain 1008
Candida = assay: In vitro MIC, NCCLS M27A, Candida species; parameters: MIC, Candida albicans 1.549 / MIC, Candida albicans Y-01-19 / MIC, C. krusei 766-1 / MIC, C. krusei Q. C / MIC, Candida tropicalis ATCC / MIC, C. glabrata 90030: unit not given beside the values; MIC, Candida albicans A 26 / MIC, C. parapsilosis Q. C.: unit not given here; conditions: for MIC, C. glabrata 90030: C. glabrata strain 90030; for MIC, C. krusei 766-1: C. krusei strain 766-1; for MIC, C. krusei Q. C: C. krusei strain Q. C; for MIC, C. parapsilosis Q. C.: C. parapsilosis strain Q. C.; for MIC, Candida albicans 1.549: Candida albicans strain 1.549; for MIC, Candida albicans A 26: Candida albicans strain A 26; for MIC, Candida albicans Y-01-19: Candida albicans strain Y-01-19
Histoplasma capsulatum = tested on: Histoplasma capsulatum
Cryptococcus neoformans = assay: In vitro MIC, NCCLS M27A, Cryptococcus neoformans; parameters: MIC, C. neoformans I: unit not given beside the values; MIC, C. neoformans M 106: unit not given here; conditions: for MIC, C. neoformans I: C. neoformans strain I; for MIC, C. neoformans M 106: C. neoformans strain M 106

SMILES	MIC, A. fumigatus 1008 (A. fumigatus s 1008)	MIC, C. glabrata 90030 (Candida)	MIC, C. krusei 766-1 (Candida)	MIC, C. krusei Q. C (Candida)	MIC, C. parapsilosis Q. C. (Candida)	MIC, Candida albicans 1.549 (Candida)	MIC, Candida albicans A 26 (Candida)	MIC, Candida albicans Y-01-19 (Candida)	MIC, Candida tropicalis ATCC (Candida)	MIC, H. capsulatum (Histoplasma capsulatum) [µg/mL]	MIC, C. neoformans I (Cryptococcus neoformans)	MIC, C. neoformans M 106 (Cryptococcus neoformans)
COc1ccccc1N1CCN(c2ccc(-n3c(C)nn(CC(O)(Cn4cncn4)c4ccc(F)cc4F)c3=O)cc2)CC1 (stereo not drawn) [Compound 35, 2-[2-(2,4-Difluorophenyl)-2-hydroxy-3-(1H-1,2,4-triazol-1-yl)propyl]-4-{4-[4-(2-methoxyphenyl)-1-piperazinyl]phenyl}-3-(2H,4H)-5-methyl-1,2,4-triazolone]	>12.5	12.50	12.50	3.12	0.20	1.56	<0.02	3.12	<0.02	0.2 (≈ 0.332 µM)	0.80	3.12
C[C@@H](n1ncn(-c2ccc(N3CCN(c4ccccc4)CC3)cc2)c1=O)[C@@](O)(Cn1cncn1)c1ccc(F)cc1F [Compound 6, 2-{[1R2S/1S2R]-2-(2,4-Difluorophenyl)-2-hydroxy-1-methyl-3-(1H-1,2,4-triazol-1-yl)propyl}-4-[4-(1-phenylpiperazinyl)phenyl]-3-(2H,4H)-1,2,4-triazolone]	>16	>16	>16	16.0	0.125	2.00	<0.03	8.00	<0.03	0.12 (≈ 0.21 µM)	0.25	2.00
CCc1ccccc1N1CCN(c2ccc(-n3c(C)nn([C@H](C)[C@](O)(Cn4cncn4)c4ccc(F)cc4F)c3=O)cc2)CC1 [Compound 31, 2-{[1R2R/1S2S]-2-(2,4-Difluorophenyl)-2-hydroxy-1-methyl-3-(1H-1,2,4-triazol-1-yl)propyl}-4-{4-[4-(2-ethylphenyl)-1-piperazinyl]phenyl}-3-(2H,4H)-5-methyl-1,2,4-triazolone]	1.00	0.50	0.50	0.12	<0.03	>16	<0.03	0.12	<0.03	0.06 (≈ 0.0976 µM)	<0.03	<0.03
C[C@@H](n1ncn(-c2ccc(N3CCN(c4ccccc4F)CC3)cc2)c1=O)[C@](O)(Cn1cncn1)c1ccc(F)cc1F [Compound 25, 2-{[1R2R/1S2S]-2-(2,4-Difluorophenyl)-2-hydroxy-1-methyl-3-(1H-1,2,4-triazol-1-yl)propyl}-4-{4-[4-(2-fluorophenyl)-1-piperazinyl]phenyl}-3-(2H,4H)-1,2,4-triazolone]	0.50	0.12	0.12	0.06	<0.03	0.06	<0.03	0.12	<0.03	0.06 (≈ 0.102 µM)	<0.03	<0.03
Cc1nn([C@H](C)[C@](O)(Cn2cncn2)c2ccc(F)cc2F)c(=O)n1-c1ccc(N2CCN(c3ccc(Cl)cc3Cl)CC2)cc1 [Compound 33, 2-{[1R2R/1S2S]-2-(2,4-Difluorophenyl)-2-hydroxy-1-methyl-3-(1H-1,2,4-triazol-1-yl)propyl}-4-{4-[4-(2,4-dichlorophenyl)-1-piperazinyl]phenyl}-3-(2H,4H)-5-methyl-1,2,4-triazolone]	0.50	0.25	0.25	0.06	<0.03	0.13	<0.03	0.13	<0.03	0.12 (≈ 0.183 µM)	<0.03	<0.03
C[C@@H](n1ncn(-c2ccc(N3CCN(c4ccc(F)c(Cl)c4)CC3)cc2)c1=O)[C@@](O)(Cn1cncn1)c1ccc(F)cc1F [Compound 16, 2-{[1R2S/1S2R]-2-(2,4-Difluorophenyl)-2-hydroxy-1-methyl-3-(1H-1,2,4-triazol-1-yl)propyl}-4-{4-[4-(3-chloro-4-fluorophenyl)-1-piperazinyl]phenyl}-3-(2H,4H)-1,2,4-triazolone]	>16	0.50	>16	1.00	0.06	4.00	<0.03	1.00	<0.03	0.5 (≈ 0.8 µM)	0.12	0.12
Cc1ccc(N2CCN(c3ccc(-n4cnn([C@H](C)[C@@](O)(Cn5cncn5)c5ccc(F)cc5F)c4=O)cc3)CC2)cc1Cl [Compound 18, 2-{[1R2S/1S2R]-2-(2,4-Difluorophenyl)-2-hydroxy-1-methyl-3-(1H-1,2,4-triazol-1-yl)propyl}-4-{4-[4-(3-chloro-4-methylphenyl)-1-piperazinyl]phenyl}-3-(2H,4H)-1,2,4-triazolone]	>16	1.00	>16	2.00	0.25	2.00	<0.03	1.00	<0.03	0.25 (≈ 0.403 µM)	0.12	0.25
Cc1nn(CC(O)(Cn2cncn2)c2ccc(F)cc2F)c(=O)n1-c1ccc(N2CCN(c3ccc(Cl)cc3)CC2)cc1 (stereo not drawn) [Compound 46, 2-[2-(2,4-Difluorophenyl)-2-hydroxy-3-(1H-1,2,4-triazol-1-yl)propyl]-4-{4-[4-(4-chlorophenyl)-1-piperazinyl]phenyl}-3-(2H,4H)-5-methyl-1,2,4-triazolone]	>12.5	6.25	3.12	0.80	<0.02	0.40	<0.02	0.40	0.05	0.1 (≈ 0.165 µM)	0.05	0.40
O=c1n(-c2ccc(N3CCN(c4ccc(F)cc4Cl)CC3)cc2)cnn1CC(O)(Cn1cncn1)c1ccc(F)cc1F (stereo not drawn) [Compound 58, 2-[2-(2,4-Difluorophenyl)-2-hydroxy-3-(1H-1,2,4-triazol-1-yl)propyl]-4-{4-[4-(2-chloro-4-fluorophenyl)-1-piperazinyl]phenyl}-3-(2H,4H)-1,2,4-triazolone]	2.00	0.25	1.00	0.25	<0.03	0.03	<0.03	0.03	<0.03	0.004 (≈ 0.00655 µM)	<0.03	<0.03
C[C@@H](n1ncn(-c2ccc(N3CCN(c4ccccc4)CC3)cc2)c1=O)[C@](O)(Cn1cncn1)c1ccc(F)cc1F [Compound 5]	0.50	1.00	0.50	0.12	<0.03	2.00	<0.03	0.12	<0.03	< 0.03	<0.03	<0.03
